These results are taken from patent US20240182508A1, “AMPHIPATHIC COMPOUND, PREPARATION METHOD THEREFOR, AND SURFACTANT COMPOSITION COMPRISING SAME” (priority 2022, published 2024).

A short description of data set [1]: CMC (critical micelle concentration) from surface tension by the stalagmometric method. The format is physicochemical. To be noted: graph of surface tension versus sample concentration. As to the method: The surface tension values of steviol bisglycoside (rebaudioside A) and steviol monoglycoside-acid, ester, and amide obtained in Examples 1, 4, and 5 were measured and compared at various concentrations using the stalagmometric method. In addition, through a graph of surface tension versus sample concentration, CMC was measured to be 5.14 mM (rebaudioside A), 1.1 mM (Example 1, steviolbioside), 0.15 mM (Example 4, rebaudioside B methyl ester), and 0.5 mM (Example 5, rebaudioside B n-hexylamide).

Data set [2] in a line: Foaming properties (foam maintained on standing, measuring cylinder). It is filed as physicochemical. Particulars: 10 mg in 5 ml distilled water, shaken 10 seconds. As to the method: The foaming properties of steviol monoglycoside-ester obtained in Example 4 were confirmed. 5 ml of distilled water and 10 mg of steviol monoglycoside-ester obtained in Example 4 were mixed in a measuring cylinder to form micelles, then shaken for 10 seconds to generate foam, then allowed to stand at room temperature to compare the amount of foam.
Thereby, it was confirmed that about 50% of the foam was maintained after 15 minutes and about 30% of the foam was maintained after 30 minutes, based on the height of the foam.

Structures are written as SMILES.

Molecule `C=C1C[C@@]23CC[C@H]4[C@@](C)(CCC[C@@]4(C)C(=O)O)[C@@H]2CC[C@]1(O[C@@H]1O[C@H](CO)[C@@H](O)[C@H](O)[C@H]1O[C@@H]1O[C@H](CO)[C@@H](O)[C@H](O)[C@H]1O)C3` [Example 1, steviolbioside] displayed a CMC in data set [1] of 1.1 mM.

Regarding `C=C1C[C@@]23CC[C@H]4[C@@](C)(CCC[C@@]4(C)C(=O)OC)[C@@H]2CC[C@]1(O[C@@H]1O[C@H](CO)[C@@H](O)[C@H](O[C@@H]2O[C@H](CO)[C@@H](O)[C@H](O)[C@H]2O)[C@H]1O[C@@H]1O[C@H](CO)[C@@H](O)[C@H](O)[C@H]1O)C3` [Example 4, rebaudioside B methyl ester], the CMC in data set [1] was 0.15 mM. The “foam maintained, based on the height of the foam” value was “about 50%” in data set [2] (after 15 minutes at room temperature) and “about 30%” in data set [2] (after 30 minutes at room temperature).

Regarding `C=C1C[C@@]23CC[C@H]4[C@@](C)(CCC[C@@]4(C)C(=O)NCCCCCC)[C@@H]2CC[C@]1(O[C@@H]1O[C@H](CO)[C@@H](O)[C@H](O[C@@H]2O[C@H](CO)[C@@H](O)[C@H](O)[C@H]2O)[C@H]1O[C@@H]1O[C@H](CO)[C@@H](O)[C@H](O)[C@H]1O)C3` [Example 5, rebaudioside B n-hexylamide], the CMC in data set [1] worked out at 0.5 mM.

In turn, `C=C1C[C@@]23CC[C@H]4[C@@](C)(CCC[C@@]4(C)C(=O)O[C@@H]4O[C@H](CO)[C@@H](O)[C@H](O)[C@H]4O)[C@@H]2CC[C@]1(O[C@@H]1O[C@H](CO)[C@@H](O)[C@H](O[C@@H]2O[C@H](CO)[C@@H](O)[C@H](O)[C@H]2O)[C@H]1O[C@@H]1O[C@H](CO)[C@@H](O)[C@H](O)[C@H]1O)C3` [rebaudioside A, reference compound] had a CMC in data set [1] of 5.14 mM.
